According to patent US8129383B2, “Aminopterin dosage forms and methods for inflammatory disorders” (Aminopterin LLC, priority 2005, dated 2012):

Legend:
[1] = tested on: carrageenan-induced inflammation in air pouches; assay: duration of efficacy in the murine air-pouch model after cessation of 4 weeks of dosing; assay type: in vivo, mice; conditions: aminopterin 0.05 mg/kg, methotrexate 1.0 mg/kg
Method: We therefore examined the rate at which anti-inflammatory activity was lost in the air-pouch model after the cessation of 4 weeks of dosing at the maximally efficacious dose (FIG. 2).
On day 25 the air pouches were re-inflated with 1.5 ml of air. Pouches were re-inflated as needed to maintain them.

[2] = tested on: influx of neutrophils (PMNs) in hyperoxia; assay: rat oxygen-toxicity model of bronchopulmonary dysplasia; assay type: in vivo, rats; conditions: single 0.35 mg/kg ip day 2 after birth, 95% oxygen, sacrifice day 8
From the text: Mason, S, N.; Richard L. Auten, J. Lung inflammation in hyperoxia can be prevented by antichemokine treatment in newborn rats. American Journal of Respiratory Critical Care Medicine 2000, 162, 2316-2323]. […] Litter sizes were the same. […] Dams were rotated daily between air and oxygen cages to avoid maternal oxygen toxicity. On day 8, the pups were weighed and then euthanized, tracheas are cannulated and the pulmonary artery is perfused with saline. Bronchoalveolar lavage fluid (BALF) was then obtained for cell count and chemokine analysis (FIG. 3). The lungs were removed and snap frozen for myeloperoxidase activity assay (neutrophil accumulation within lung parenchyma) and 8-isoprostane, a marker of lipid oxidation. The pulmonary artery was perfused and the lungs were inflation-fixed with buffered formalin at 25 cm H2O.

[3] = tested on: ma104 cells; conditions: read-out: EC50 of adenosine release (prior art); Cronstein'91; cited from earlier work
[4] = tested on: canine atopic dermatitis; conditions: oral about 0.2 mg/kg/week
Method: […] Subjects were assessed at baseline and at weeks 2 and 4 of the trial, and every other week of the 1-year extension phase.
Subjects were assessed at baseline and at weeks 2 and 4.

[5] = tested on: neutrophils that accumulated in the carrageenan-treated air pouches; conditions: weekly ip injection days 1, 7, 14, 21; carrageenan day 22, exudate after 4 hours
Method: J. Clin. Invest., 1993. 92(6):2675-82].
A separate group of 5 animals was given vehicle by ip injection on the same days (0.9% saline, control, n=5). On day 16, air pouches were induced on the animals by injecting 3 ml of air subcutaneously on the back. On day 22 (i.e. one day after the last dose of drug or vehicle), inflammation was induced by injection of 1 ml of a suspension of carrageenan (2% weight/volume in calcium- and magnesium-free PBS). The mice were put back in their cages and allowed to run free for 4 hours. […] After 4 hours, the animals were sacrificed, the pouches flushed with 2 ml of PBS and the exudates harvested. Aliquots were diluted 1:1 with methylene blue (0.01% w/v in PBS), and the cells were counted.

Question: For CN(Cc1cnc2nc(N)nc(N)c2n1)c1ccc(C(=O)N[C@@H](CCC(=O)O)C(=O)O)cc1 [methotrexate], which “difference between aminopterin and methotrexate in rate of recovery of inflammation” value ([1]; 8, 12 or 22 days after last of 4 weekly ip doses) is on record?
Answer: Its value is “no statistically significant difference”.

Question: What about the duration of action ([1]; after last of 4 weekly ip doses) of the same compound?
Answer: Its duration of action is “quite long”.

Question: And the “influx of neutrophils in bronchoalveolar lavage fluid” value [2]?
Answer: The value was “failed to reduce the influx of neutrophils”.

Question: What about the EC50 [3] of the same compound?
Answer: Its EC50 is ~1 nM.

Question: What about the “time to produce efficacy compared to aminopterin” value ([4]; 4-week trial) of the same compound?
Answer: Its value is “took longer to produce efficacy compared to aminopterin”.

Question: And the “outcome of the five treated dogs” value ([4]; assessed at weeks 2 and 4)?
Answer: Its value is “Three dogs did not do well, one had not improved as of the last assessment and one dog improved markedly”.

Question: What about the “EC50 for diminishing the number of neutrophils accumulated in carrageenan-treated air pouches” value [5] of the same compound?
Answer: The value was 0.04 mg/kg/wk.
